{"source": "paper PMC11488110", "about": "(Theranostics, 2024)", "key": {"[1]": {"test_system": "PPARδ target genes (Pdk4, Angptl4, Cd36)", "assay": "qRT-PCR of PPARδ target genes in BV-2 microglia and mouse cortex", "type": "cell-based", "settings": "in vitro (BV-2, 24 h) and in vivo (cortex)", "description": "Total RNA was isolated using TRIzol® (Invitrogen). Genomic DNA was removed and complementary DNA was synthesized from 500 ng total RNA using the iScript™ gDNA Clear cDNA Synthesis Kit (Bio-Rad). Real-time PCR was performed using the CFX Connect™ Real-Time PCR Detection System (Bio-Rad) using iQ™ SYBR® Green Supermix (Bio-Rad). The hypoxanthine phosphoribosyltransferase (Hprt) was used to normalize mRNA expression levels. Primer sequences used are described in Table S6.\nFigure S8. 5a induces transcriptional activation of PPAR δ targ et genes in vitro an d in vivo.\n(A-B) qRT-PCR anal ysi s of relative mRNA expression of Ppard and its downstream t arget genes, including Pdk4 , Angptl4, and Cd36. (A) BV-2 microglia were treated with 5a or […]\ntreated control (one -wa y ANOVA with Dunnett’s test). (B) Cortical homogenates from 10 - month- old WT and APP/PS1 mice treated with vehicle or 5a (30 m g/kg/day for 10 da ys, p.o ) were used for anal ysis (n = 3–4 mice per group). *P < 0.05 and ****P < 0.0001; n.s., not significant (one-wa y ANOVA with Tukey’s test). Hprt mRNA levels were used to normalize the expression of each gene.Data are p resented as mean ± SEM. GW: GW501516.\n(1 picture or pasted object on this page, not shown here)"}, "BV-2 microglial cells": {"test_system": "BV-2 microglial cells", "assay": "LPS-induced inflammatory responses in BV-2 microglia", "type": "cell-based, mouse"}, "[2]": {"test_system": "Salmonella typhimurium TA98", "assay": "Ames MPF mutagenicity assay, TA98", "type": "cell-based", "description": "An Ames microplate format (MPF) 98/100 mutagenesis assay kit (Xenometrix) was used to test mutagenic activity. The TA98 / TA100 Salmonella strain was inoculated into the bacterial culture medium and cultured overnight. The Salmonella test strain was then exposed to six concentrations of the test compound (plus positive and negative controls). Samples were prepared in 96-well plates in sterile DMSO. The cultured bacteria, test compound, and S9 mixture were incubated for 90 min at 37 °C in a shaking incubator. The mixture was then treated with an indicator medium and dispensed into 384-well plates. The plates were incubated at 37 °C for 48 h. The number of wells containing revertant colonies was counted for each dose.\nTa b l e S4 . Tw o -strain Ames mutagenic assess ment of 5a.\nStraina Activity in the absence (-) of S9b Activity in the presence (+) of S9b TA 9 8 Negative (-) Negative (-)\nTA 1 0 0 Negative (-) Negative (-) aSalmonella typhimurium strains TA98 (hi s D3052 mutation) and TA100 (hisG46 mutation) were used to detect frameshift mutations and base- pair substitution mutations, respectively. bAroclor 1254- induced rat liver S9 fraction for exogenous metabolic activation."}, "[3]": {"assay": "Pharmacokinetics in Sprague-Dawley rats", "settings": "rat, plasma"}, "hPPARδ": {"target": "T1, hPPARδ (Homo sapiens, UniProt Q03181)", "T1 construct": "expressed in transfected cells; host or cells: CV-1 monkey kidney cells", "T1 sequence (Q03181 1-441)": "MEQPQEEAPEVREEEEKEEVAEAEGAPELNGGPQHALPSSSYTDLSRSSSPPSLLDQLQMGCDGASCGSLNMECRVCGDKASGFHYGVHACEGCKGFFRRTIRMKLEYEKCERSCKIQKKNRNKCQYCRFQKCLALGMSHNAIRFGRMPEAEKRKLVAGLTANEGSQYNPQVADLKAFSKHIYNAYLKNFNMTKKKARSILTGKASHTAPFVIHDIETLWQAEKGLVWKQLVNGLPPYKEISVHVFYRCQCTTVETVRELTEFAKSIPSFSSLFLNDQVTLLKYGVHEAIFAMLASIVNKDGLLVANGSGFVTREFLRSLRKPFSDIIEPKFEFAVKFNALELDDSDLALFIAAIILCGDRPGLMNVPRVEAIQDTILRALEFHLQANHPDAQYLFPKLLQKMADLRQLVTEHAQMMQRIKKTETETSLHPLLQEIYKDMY", "assay": "In vitro co-transfection (PPRE-luciferase) assay in CV-1 cells, hPPARδ", "type": "cell-based"}}, "note": "“Also recorded” adds a separate entry of the source."}
{"smiles": "Cc1cc(SCc2[se]c(-c3ccc(C(F)(F)F)cc3)nc2C)ccc1OCC(=O)O", "note": "[Compound 5a, {2-Methyl-4-[4-methyl-2-(4-trifluoromethyl-phenyl)-selenazol-5-yl-methylsulfanyl]-phenoxy}-acetic acid]", "values": [{"measurement": "Transcription of PPARδ target genes Pdk4, Angptl4, Cd36", "setting": "[1]", "value": "induced transcriptional activation"}, {"measurement": "LPS-induced mRNA and protein levels of iNOS, TNF-α and IL-6", "setting": "BV-2 microglial cells; BV-2, LPS 0.2 μg/mL", "value": "reduced the LPS-induced increases"}, {"measurement": "LPS-induced NO production (nitrite)", "setting": "BV-2 microglial cells; pretreatment 3 h, LPS 0.2 μg/mL 24 h", "value": "suppressed"}, {"measurement": "LPS-induced phosphorylation of NF-κB p65", "setting": "BV-2 microglial cells; pretreatment 6 h, LPS 1 h", "value": "prevented the increase"}, {"measurement": "Ames mutagenic activity in the presence (+) of S9", "setting": "[2]; TA98, with rat liver S9", "value": "Negative (-); also recorded: lacks mutagenicity"}, {"measurement": "Ames mutagenic activity in the absence (-) of S9", "setting": "[2]; TA98, without S9", "value": "Negative (-); also recorded: lacks mutagenicity"}, {"measurement": "AUC", "setting": "[3]; iv, 5 mg/kg", "value": 7.35, "unit": "µg·h/mL"}, {"measurement": "Vd", "setting": "[3]; iv, 5 mg/kg", "value": "2.3 ± 0.1", "unit": "L/kg"}, {"measurement": "clearance", "setting": "[3]; iv, 5 mg/kg", "value": 0.612, "unit": "L/h/kg"}, {"measurement": "half-life", "setting": "[3]; iv, 5 mg/kg", "value": "2.3 ± 0.6", "unit": "h"}, {"measurement": "bioavailability", "setting": "[3]; oral, 10 mg/kg", "value": 90.7, "unit": "%"}, {"measurement": "AUC", "setting": "[3]; po, 10 mg/kg", "value": 13.3, "unit": "µg·h/mL"}, {"measurement": "Cmax", "setting": "[3]; po, 10 mg/kg", "value": 2.74, "unit": "µg/mL"}, {"measurement": "EC50", "setting": "hPPARδ; co-transfection assay, CV-1 cells, 24 h, read-out: Potency (EC50) hPPARδ", "value": 0.7, "unit": "nM"}, {"measurement": "Selectivity index hPPARα/hPPARδ", "setting": "hPPARδ; ratio EC50(hPPARα)/EC50(hPPARδ)", "value": ">14000"}, {"measurement": "Selectivity index hPPARγ/hPPARδ", "setting": "hPPARδ; ratio EC50(hPPARγ)/EC50(hPPARδ)", "value": ">14000"}]}
